Where two headings read alike, the source gives them in different places.
Molecular target: T1, F508delCFTR (Homo sapiens, UniProt P13569, DEL508-508)
T1 construct: expressed in transfected cells; host or cells: CFBE41o- (human lung derived epithelial cell line), doxycycline-inducible expression
Test: Cell Surface Expression-Horse Radish Peroxidase (CSE-HRP) assay
Format: cell-based
Conditions: CFBE41o-F508delCFTR-HRP cells; for Maximum % activity (with co-corrector): with co-corrector (2 μM); for Maximum % activity (with co-corrector) / Maximum % activity (without co-corrector): normalized to on-plate positive control, highest concentration 20 μM
In short: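 CFBE41o- cells expressed F508delCFTR with HRP in the fourth exofacial loop, induced by 0.5 μg/mL doxycycline for 72 h at 37 °C. Compounds alone or with 2 μM co-corrector ran 18–24 h at 33 °C, 8-point 3-fold from 20 μM. Washed-cell luminol luminescence was normalized to DMSO and positive control, fitted sigmoidally for EC50 (three plates).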

[1] = test compound without co-corrector, 18-24 hours at 33° C., read-out: EC50 (without co-corrector)
[2] = with co-corrector (2 μM of 3-[(2R,4R)-4-({[1-(2,2-difluoro-1,3-benzodioxol-5-yl)cyclopropyl]carbonyl}amino)-7-methoxy-3,4-dihydro-2H-chromen-2-yl]benzoic acid), read-out: EC50 (with co-corrector)

T1 sequence (P13569 with tags, fused parts or gaps DEL508-508): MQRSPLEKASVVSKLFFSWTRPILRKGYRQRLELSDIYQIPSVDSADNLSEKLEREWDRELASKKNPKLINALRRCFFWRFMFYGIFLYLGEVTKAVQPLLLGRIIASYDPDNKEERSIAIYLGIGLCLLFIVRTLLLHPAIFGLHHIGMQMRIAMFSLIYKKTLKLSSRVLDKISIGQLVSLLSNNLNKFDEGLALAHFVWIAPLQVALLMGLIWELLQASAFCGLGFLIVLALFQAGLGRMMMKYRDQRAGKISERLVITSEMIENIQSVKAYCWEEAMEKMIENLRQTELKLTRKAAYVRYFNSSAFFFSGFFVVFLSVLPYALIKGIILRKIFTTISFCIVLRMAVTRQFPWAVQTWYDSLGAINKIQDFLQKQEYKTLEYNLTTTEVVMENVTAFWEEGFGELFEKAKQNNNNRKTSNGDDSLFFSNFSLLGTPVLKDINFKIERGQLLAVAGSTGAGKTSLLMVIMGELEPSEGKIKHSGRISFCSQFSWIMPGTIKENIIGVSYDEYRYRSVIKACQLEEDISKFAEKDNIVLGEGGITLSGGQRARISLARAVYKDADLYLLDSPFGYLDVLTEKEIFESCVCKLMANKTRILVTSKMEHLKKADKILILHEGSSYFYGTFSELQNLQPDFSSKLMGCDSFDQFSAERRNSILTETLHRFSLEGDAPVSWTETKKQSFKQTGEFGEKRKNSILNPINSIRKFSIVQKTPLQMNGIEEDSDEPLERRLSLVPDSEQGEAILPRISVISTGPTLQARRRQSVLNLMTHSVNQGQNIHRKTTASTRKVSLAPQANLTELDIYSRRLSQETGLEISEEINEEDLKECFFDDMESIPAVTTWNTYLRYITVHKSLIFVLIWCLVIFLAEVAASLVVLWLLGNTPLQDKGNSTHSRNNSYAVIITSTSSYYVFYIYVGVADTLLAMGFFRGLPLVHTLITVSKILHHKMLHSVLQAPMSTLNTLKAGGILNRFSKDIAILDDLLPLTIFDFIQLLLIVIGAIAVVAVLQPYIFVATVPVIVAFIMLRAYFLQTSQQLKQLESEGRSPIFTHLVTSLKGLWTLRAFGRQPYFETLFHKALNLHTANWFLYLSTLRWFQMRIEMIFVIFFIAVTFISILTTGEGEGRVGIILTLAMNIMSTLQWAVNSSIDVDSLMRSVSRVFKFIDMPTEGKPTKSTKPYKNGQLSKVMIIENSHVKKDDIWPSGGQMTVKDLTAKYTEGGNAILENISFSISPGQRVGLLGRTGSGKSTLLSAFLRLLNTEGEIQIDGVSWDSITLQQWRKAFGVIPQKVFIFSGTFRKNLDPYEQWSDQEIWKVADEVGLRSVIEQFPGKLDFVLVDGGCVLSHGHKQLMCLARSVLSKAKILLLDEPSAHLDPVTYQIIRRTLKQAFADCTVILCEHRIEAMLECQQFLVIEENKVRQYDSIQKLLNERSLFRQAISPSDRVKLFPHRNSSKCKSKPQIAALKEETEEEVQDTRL

| Compound | EC50 [1] | EC50 [2] | Maximum % activity (with co-corrector) | Maximum % activity (without co-corrector) |
| --- | --- | --- | --- | --- |
| COc1ccc(C(F)(F)F)cc1CO[C@H]1[C@H](C(C)(C)C)[C@@H](C(=O)O)N(C(=O)[C@H]2CCC[C@H](OC)C2)[C@H]1c1ccccc1 [Example 30, (2S,3R,4S,5S)-3-tert-butyl-1-[(1S,3S)-3-methoxycyclohexane-1-carbonyl]-4-{[2-methoxy-5-(trifluoromethyl)phenyl]methoxy}-5-phenylpyrrolidine-2-carboxylic acid] | 1 to 10 µM | < 1 µM | +++ (≥350) | ++ (≥100 and <200) |
| COc1ccc(C(F)(F)F)cc1CO[C@H]1[C@H](C(C)(C)C)[C@@H](C(=O)O)N(C(=O)[C@@H]2CCC[C@@H](OC)C2)[C@H]1c1ccccc1 [Example 31, (2S,3R,4S,5S)-3-tert-butyl-1-[(1R,3R)-3-methoxycyclohexane-1-carbonyl]-4-{[2-methoxy-5-(trifluoromethyl)phenyl]methoxy}-5-phenylpyrrolidine-2-carboxylic acid] | 1 to 10 µM | < 1 µM | +++ (≥350) | +++ (≥200) |
| COc1cc(C(F)(F)F)ccc1CO[C@H]1[C@H](C(C)(C)C)[C@@H](C(=O)O)N(C(=O)[C@H]2CCC[C@H](OC)C2)[C@H]1c1ccccc1 [Example 32, (2S,3R,4S,5S)-3-tert-butyl-1-[(1S,3S)-3-methoxycyclohexane-1-carbonyl]-4-{[2-methoxy-4-(trifluoromethyl)phenyl]methoxy}-5-phenylpyrrolidine-2-carboxylic acid] | 1 to 10 µM | 1 to 10 µM | +++ (≥350) | + (<100) |
| COc1cc(C(F)(F)F)ccc1CO[C@H]1[C@H](C(C)(C)C)[C@@H](C(=O)O)N(C(=O)[C@@H]2CCC[C@@H](OC)C2)[C@H]1c1ccccc1 [Example 33, (2S,3R,4S,5S)-3-tert-butyl-1-[(1R,3R)-3-methoxycyclohexane-1-carbonyl]-4-{[2-methoxy-4-(trifluoromethyl)phenyl]methoxy}-5-phenylpyrrolidine-2-carboxylic acid] | 1 to 10 µM | 1 to 10 µM | +++ (≥350) | ++ (≥100 and <200) |
| COc1ccc(Br)cc1CO[C@H]1[C@H](C(C)(C)C)[C@@H](C(=O)O)N(C(=O)OC(C)C)[C@H]1c1ccccc1 [Example 36, (2S,3R,4S,5S)-4-[(5-bromo-2-methoxyphenyl)methoxy]-3-tert-butyl-5-phenyl-1-{[(propan-2-yl)oxy]carbonyl}pyrrolidine-2-carboxylic acid] | 1 to 10 µM | 1 to 10 µM | +++ (≥350) | ++ (≥100 and <200) |
| COc1ccc(Br)cc1CO[C@H]1[C@H](C(C)(C)C)[C@@H](C(=O)O)N(C(=O)[C@@H]2CCC[C@@H](OC)C2)[C@H]1c1ccccc1 [Example 37, (2S,3R,4S,5S)-4-[(5-bromo-2-methoxyphenyl)methoxy]-3-tert-butyl-1-[(1R,3R)-3-methoxycyclohexane-1-carbonyl]-5-phenylpyrrolidine-2-carboxylic acid] | 1 to 10 µM | 1 to 10 µM | +++ (≥350) | +++ (≥200) |
| COc1ccc(-c2ccccc2)cc1CO[C@H]1[C@H](C(C)(C)C)[C@@H](C(=O)O)N(C(=O)OC(C)C)[C@H]1c1ccccc1 [Example 38, (2S,3R,4S,5S)-3-tert-butyl-4-[(4-methoxy[1,1′-biphenyl]-3-yl)methoxy]-5-phenyl-1-{[(propan-2-yl)oxy]carbonyl}pyrrolidine-2-carboxylic acid] | 1 to 10 µM | 1 to 10 µM | +++ (≥350) | ++ (≥100 and <200) |
| COc1ccc(-c2ccccc2)cc1CO[C@H]1[C@H](C(C)(C)C)[C@@H](C(=O)O)N(C(=O)[C@@H]2CCC[C@@H](OC)C2)[C@H]1c1ccccc1 [Example 39, (2S,3R,4S,5S)-3-tert-butyl-4-[(4-methoxy[1,1′-biphenyl]-3-yl)methoxy]-1-[(1R,3R)-3-methoxycyclohexane-1-carbonyl]-5-phenylpyrrolidine-2-carboxylic acid] | 1 to 10 µM | 1 to 10 µM | +++ (≥350) | +++ (≥200) |
| COc1ncc(Br)cc1CO[C@H]1[C@H](C(C)(C)C)[C@@H](C(=O)O)N(C(=O)OC(C)C)[C@H]1c1ccccc1 [Example 40, (2S,3R,4S,5S)-4-[(5-bromo-2-methoxypyridin-3-yl)methoxy]-3-tert-butyl-5-phenyl-1-{[(propan-2-yl)oxy]carbonyl}pyrrolidine-2-carboxylic acid] | 1 to 10 µM | 1 to 10 µM | +++ (≥350) | ++ (≥100 and <200) |
| COc1ncc(C(F)(F)F)cc1CO[C@H]1[C@H](C(C)(C)C)[C@@H](C(=O)O)N(C(=O)C2CCCCC2)[C@H]1c1ccccc1 [Example 41, (2S,3R,4S,5S)-3-tert-butyl-1-(cyclohexanecarbonyl)-4-{[2-methoxy-5-(trifluoromethyl)pyridin-3-yl]methoxy}-5-phenylpyrrolidine-2-carboxylic acid] | < 1 µM | < 1 µM | +++ (≥350) | ++ (≥100 and <200) |
| COc1ncc(-c2ccccc2)cc1CO[C@H]1[C@H](C(C)(C)C)[C@@H](C(=O)O)N(C(=O)OC(C)C)[C@H]1c1ccccc1 [Example 42, (2S,3R,4S,5S)-3-tert-butyl-4-[(2-methoxy-5-phenylpyridin-3-yl)methoxy]-5-phenyl-1-{[(propan-2-yl)oxy]carbonyl}pyrrolidine-2-carboxylic acid] | 1 to 10 µM | 1 to 10 µM | +++ (≥350) | + (<100) |

Second part, the molecule after the results:

| EC50 [1] | EC50 [2] | Maximum % activity (with co-corrector) | Maximum % activity (without co-corrector) | Compound |
| --- | --- | --- | --- | --- |
| 1 to 10 µM | 1 to 10 µM | +++ (≥350) | + (<100) | COc1ncc(C2CCCCC2)cc1CO[C@H]1[C@H](C(C)(C)C)[C@@H](C(=O)O)N(C(=O)OC(C)C)[C@H]1c1ccccc1 [Example 43, (2S,3R,4S,5S)-3-tert-butyl-4-[(5-cyclohexyl-2-methoxypyridin-3-yl)methoxy]-5-phenyl-1-{[(propan-2-yl)oxy]carbonyl}pyrrolidine-2-carboxylic acid] |
| 1 to 10 µM | 1 to 10 µM | +++ (≥350) | + (<100) | COc1ncc(C2CCCC2)cc1CO[C@H]1[C@H](C(C)(C)C)[C@@H](C(=O)O)N(C(=O)OC(C)C)[C@H]1c1ccccc1 [Example 44, (2S,3R,4S,5S)-3-tert-butyl-4-[(5-cyclopentyl-2-methoxypyridin-3-yl)methoxy]-5-phenyl-1-{[(propan-2-yl)oxy]carbonyl}pyrrolidine-2-carboxylic acid] |
| 1 to 10 µM | 1 to 10 µM | +++ (≥350) | ++ (≥100 and <200) | COc1ncc(C2CCC2)cc1CO[C@H]1[C@H](C(C)(C)C)[C@@H](C(=O)O)N(C(=O)OC(C)C)[C@H]1c1ccccc1 [Example 45, (2S,3R,4S,5S)-3-tert-butyl-4-[(5-cyclobutyl-2-methoxypyridin-3-yl)methoxy]-5-phenyl-1-{[(propan-2-yl)oxy]carbonyl}pyrrolidine-2-carboxylic acid] |
| < 1 µM | < 1 µM | +++ (≥350) | +++ (≥200) | COc1ccc(C(C)(C)C)cc1CO[C@H]1[C@H](C(C)(C)C)[C@@H](C(=O)O)N(C(=O)[C@@H]2CCC[C@@H](OC)C2)[C@H]1c1ccccc1 [Example 46, (2S,3R,4S,5S)-3-tert-butyl-4-[(5-tert-butyl-2-methoxyphenyl)methoxy]-1-[(1R,3R)-3-methoxycyclohexane-1-carbonyl]-5-phenylpyrrolidine-2-carboxylic acid] |
| 1 to 10 µM | 1 to 10 µM | +++ (≥350) | +++ (≥200) | COc1ccc(C(C)(C)C)cc1CO[C@H]1[C@H](C(C)(C)C)[C@@H](C(=O)O)N(C(=O)OC(C)C)[C@H]1c1ccccc1 [Example 47, (2S,3R,4S,5S)-3-tert-butyl-4-[(5-tert-butyl-2-methoxyphenyl)methoxy]-5-phenyl-1-{[(propan-2-yl)oxy]carbonyl}pyrrolidine-2-carboxylic acid] |
| 1 to 10 µM | 1 to 10 µM | +++ (≥350) | ++ (≥100 and <200) | COc1ncc(C(F)(F)F)cc1CO[C@H]1[C@H](C(C)(C)C)[C@@H](C(=O)O)N(C(=O)C2CCCCC2)[C@H]1c1ccccc1F [Example 48, (2S,3R,4S,5S)-3-tert-butyl-1-(cyclohexanecarbonyl)-5-(2-fluorophenyl)-4-{[2-methoxy-5-(trifluoromethyl)pyridin-3-yl]methoxy}pyrrolidine-2-carboxylic acid] |

— patent US10399940B2, “Substituted pyrrolidines and methods of use” (AbbVie S.à.r.l., priority 2016, dated 2019)
